Measured values: patent US10632054B2, “Method for hair frizz reduction” (The Procter & Gamble Company, priority 2015, dated 2020)

How the values were obtained:
[1] = Expert rating of hair switches for frizz, clean feel and greasy feel; settings: 1% in leave-on composition
Method: Additional leave-on treatment compositions are prepared (Tables 1 and 2) according to the procedure described above, which are used to treat hair switches using the procedure described above (amount of 0.10 g of composition per g of hair). The switch is kept at high humidity (above 85%) for 2 hours. Then, ten experts are asked to rate each hair switch in terms of frizz, clean feel, and greasy feel, based on a 5 point scale, 5 being the highest and 1 being the lowest rating. Acceptable values are:
For frizz, less than 2 (lower number corresponds to less frizz);
For no greasy feel less than 3, (lower number corresponds to less greasy feel), and
For clean feel greater than 3 (higher number corresponds to cleaner feel).

[2] = Leave-on treatment, % water reduction by DVS in damaged hair; settings: 10% propylene glycol
Method: An amount of 25-30 mg of hair with length of approximately 1 cm is weighed and hold for equilibration at 0% RH for 16 hours. After the 16-hour period, the RH is increased to 10% and maintained at this level for 6 hours. Then, the RH is increased by 10% after every 6 hours interval until it reaches 90% RH. The % water reduction is calculated as follows:
A=Amount of water absorbed by the hair treated with composition containing the Moisture Control Material

[3] = Soaking treatment, moisture uptake by DVS; settings: pH 4.2, 40 deg C., at 90% RH
Method: The Moisture Control Material is added into a 50:50 ethanol:water solvent at a concentration of 2% w/w and mixed until completely dissolved. The solution pH is adjusted with sodium hydroxide (50% w/w) to a final pH of 4.2. The soaking solution is kept at 40 deg C. for 2 hrs. until a uniform composition is obtained.
One hair switch of natural virgin brown hair is placed in 200 ml of this solution for 2 hours in an oven set at 40° C. After the 2-hour period, the hair is removed, air dried and then tested for moisture uptake using DVS. For the control experiment, a natural brown virgin hair switch of the same weight is placed in a 50:50 ethanol:water solvent and treated under identical conditions.
The % water reduction is calculated as follows: […]
Hair soaked in active solution of pH 4.2 for different interval of time from 10 min to 2 hrs at 40 deg C. Hair Switches were air dried and prepared for % water reduction measurement using DVS vs. control (no active).

O=C(O)c1ccc(O)cc1O [2,4-Dihydroxybenzoic acid]
Hair switch rating result in words (frizz, clean feel, greasy feel) [1]: provide frizz protection with clean feel and without greasy feel negative

CCCCCCCCC(CO)CCCCCC (stereo not shown) [2-Hexyl-1-decanol]
Hair switch rating result in words (frizz, clean feel, greasy feel) [1]: provide frizz protection with clean feel and without greasy feel negative

O=C(OCCO)c1ccccc1O [2-Hydroxyethyl salicylate]
Hair switch rating result in words (frizz, clean feel, greasy feel) [1]: provide frizz protection with clean feel and without greasy feel negative

O=S(=O)(O)c1ccc(O)cc1 [4-Hydroxybenzenesulphonic acid]
Hair switch rating result in words (frizz, clean feel, greasy feel) [1]: provide frizz protection with clean feel and without greasy feel negative

O=C(O)c1cc(Cl)ccc1O [5-Chlorosalicylic acid]
Hair switch rating result in words (frizz, clean feel, greasy feel) [1]: provide frizz protection with clean feel and without greasy feel negative | increase in % water reduction as measured by DVS versus without propylene glycol [2]: ~4 times | % water reduction vs. control ([3]; 10 min soaking): 9.6% | % water reduction vs. control ([3]; 20 mins soaking): 14.8% | % water reduction vs. control ([3]; 30 mins soaking): 19% | % water reduction vs. control ([3]; 1 hr soaking): 26% | % water reduction vs. control ([3]; 2 hr soaking): 30%

CC(C)CCCCCCCCCCCCCCCOC(=O)CCCCCCCCCCCCCCC(C)C [Isostearyl isostearate]
Hair switch rating result in words (frizz, clean feel, greasy feel) [1]: provide frizz protection with clean feel and without greasy feel negative

O=C(O)c1ccccc1O [Salicylic acid]
Hair switch rating result in words (frizz, clean feel, greasy feel) [1]: provide frizz protection with clean feel and without greasy feel negative
